# Reference: publication PMC12454639, “Direct disassembly of α-syn preformed fibrils into α-syn monomers by an all-D-peptide” (NPJ Parkinson's Disease, 2025)
# Square brackets hold non-standard residues; d marks the D form. Peptide text beside a SMILES is read from it.
# Experiments:
# [1] = system: 15N-labeled full-length acetyl-α-syn; experiment: 1H-15N HSQC NMR; assay type: binding
# Method: Samples were prepared at final concentrations of 25 µM ^15N-labeled full-length acetyl-α-syn in the absence (reference) and presence of an equimolar amount of SVD-1a (not isotopically labeled, thus NMR-invisible) in PBS buffer, pH 7.4, with an addition of 5% D2O for internal reference. 2D 1H-15N HSQC spectra were recorded back-to-back, on a Bruker AVANCE NEO spectrometer (Bruker, USA) operating at 1200 MHz proton Larmor frequency. The experimental temperature was 10 °C. Spectral dimensions were 16.02 ppm (^1H) x 30 ppm (^15N), with 2048 points in the ^1H dimension and 256 increments in the ^15N dimension, resulting in an acquisition time of 53 ms for the ^1H dimension and 35 ms for the ^15N dimension. For each increment, 32 scans were recorded, with a recovery delay of 1 s between scans, resulting in an overall experimental time of […] per spectrum.
# NMR data sets were processed using the Bruker TopSpin software (version 4.1.1) and visualized using CcpNmr Analysis (v2.4.2)[59]. For the assessment of chemical shift changes of α-syn resonances in the presence of SVD-1a relative to the reference spectrum (without SVD-1a), peak positions were extracted using the CcpNmr Analysis software. From the residue-specific chemical shift changes in the ^1H and ^15N dimensions, an absolute chemical shift change, Δδ, was calculated using the formula Δδ = 0.5δH2+0.14δN2 [60]. […]
# [2] = system: small α-syn PFF seeds; experiment: AFM analysis of small α-syn PFF seeds; assay type: biochemical; settings: 400 and 1600 nM SVD-1a, 3 days at 37 °C, PBS pH 7.4
# Method: Fig. 4 SVD-1a disassembles small α-syn PFF seeds into α-syn monomers. Small α-syn PFF seeds were prepared as described previously. […] A and B Time-dependent DLS measurements with 200 nM small α-syn PFF seeds in the absence (A) and presence (B) of 500 nM SVD-1a. 1 ml sample was continuously measured in a sealed quartz cuvette at 37 °C under quiescent conditions every 60 s for 72 h in a SpectroSize 300 instrument (XtalConcepts, GE). Data are shown as a radius plot where the signal amplitude of each particle size is represented by the data point diameter. C One-phase exponential decay fit of “200 nM PFF + 500 nM SVD-1a” shown in (B). […] PFF and monomer samples that were incubated without SVD-1a served as controls. α-Syn was detected with the antibody Syn211. […] In the upper part of the blot, above the marker range, PFFs were detected, using a longer exposure time due to a weaker signal (see Supplementary Fig. 11 for the whole blot image with different exposure times). F Size-based fractionation by centrifugal concentration followed by ELISA quantification. […] After incubation, the samples were fractioned using a 100 kDa MWCO centrifugal concentrator (Merck, Microcon DNA Fast Flow 100 MWCO). α-Syn content of flow through (red) and retentate (blue) was quantified using an α-syn specific ELISA (BioLegend, Human α-Synuclein (Colorimetric), 448607). […]
smiles,measurement,setting,value
CC[C@@H](C)[C@@H](NC(=O)[C@@H](Cc1c[nH]cn1)NC(=O)[C@@H](CCC(=O)O)NC(=O)[C@@H](CCC(N)=O)NC(=O)[C@@H](Cc1c[nH]c2ccccc12)NC(=O)[C@@H](Cc1ccc(O)cc1)NC(=O)[C@H](NC(=O)[C@@H](CCC(=O)O)NC(=O)[C@@H](Cc1c[nH]cn1)NC(=O)[C@H](NC(=O)[C@H]1CCCN1C(=O)[C@@H](CC(C)C)NC(=O)[C@H](N)CCCNC(=N)N)[C@H](C)O)[C@H](C)O)C(=O)N[C@H](Cc1c[nH]c2ccccc12)C(=O)N[C@H](Cc1c[nH]cn1)C(=O)N[C@H](C)C(=O)N[C@H](CCCNC(=N)N)C(=O)N[C@H](CCCNC(=N)N)C(=O)N[C@H](CCCNC(=N)N)C(=O)N[C@H](CCCNC(=N)N)C(=O)N[C@H](CCCNC(=N)N)C(N)=O [SVD-1a] (H-[dR][dL][dP][dT][dH][dE][dT][dY][dW][dQ][dE][dH][dI][dW][dH][dA][dR][dR][dR][dR][dR]-NH2),NMR chemical shift changes of α-syn,"[1]; 25 µM 15N-α-syn + 25 µM SVD-1a, PBS pH 7.4, 10 °C, 1200 MHz","the chemical shift changes are very small, with most residues showing significant chemical shift changes located in the C-terminal region"
same,precipitation of α-syn in NMR sample,"[1]; 25 µM α-syn with 25 µM SVD-1a, 4.8 h at 10 °C",did not yield any signs of signal loss due to precipitation
same,small α-syn PFF particle number,[2],decrease in small α-syn PFF particle number
